In US20170217889A1, “4-SUBSTITUTED PYRIDINE-2,6-DICARBOXYLIC ACID DERIVATIVES AND METHOD OF PREPARING SAME” (Okinawa Institute of Science and Technology School …, priority 2014, published 2017) one finds IC50 data, which are given here for three compounds.

The nature of the data set: Cytotoxicity, K562 cell growth inhibition (Cell Counting Kit-8 / WST-8). The format is cell-based. The following applies: human; K562 cells; 6-48 hrs incubation; WST-8 absorbance at 450 nm; read-out: Cytotoxic activity evaluated using K562 cells IC50. The procedure: K562 cells (American Type Culture Collection) were cultured in a culture medium containing 10% (v/v) fetal calf serum (FCS) (manufactures by Sigma) to logarithmic phase. The cells were seeded in 96-well microtiter plate at a density of 5000 cells/well in 100 μL cell culture medium and incubated at 37° C. and 5% CO2 in a humidified incubator overnight. The test compounds of various concentrations were added in a well at 10 fold concentration in 1/10 volume of medium without FCS. After 6-48 hrs incubation at 37° C. in the CO2 incubator, 10 uL solution of the viable cell counting reagent, Cell counting Kit-8 (5 mmol/L WST-8, 0.2 mmol/L 1-Methoxy PMS, 150 mmol/L NaCl) (manufactured by Dojindo) was added to each well, and reacted for 1 to 4 hours in the CO2 incubator. After the incubation, an absorbance of formazan, generated by reduction of WST-8, was determined at 450 nm using a microplate reader.
The assay readout is correlated with the viable cell numbers. Lower values correspond to high inhibition and greater values to low inhibition of the cell growth. To determine IC50 values (i.e. the concentration inhibiting the cell growth by 50%) of the compounds of formula I, several assays were made with a range of concentrations chosen empirically to give low, high and intermediate inhibition of the growth and determined using curve fitting software.
(Tetrazolium assays rely on reduction of a dye to a coloured formazan, in cell work by metabolically active cells.)
The IC50 is the midpoint of a concentration-inhibition curve. Turning to `CCOC(=O)c1cc(-c2ccc(Cl)cc2)cc(C(=O)OCC)n1`, the IC50 is 50 µM. Next, `CCOC(=O)c1cc(-c2ccc(Br)cc2)cc(C(=O)OCC)n1`: 35 µM; `CCOC(=O)c1cc(C2CCCCC2)cc(C(=O)OCC)n1`: 51 µM.
